Data published in US20040142981A1, “Antibacterial benzoic acid derivatives” (priority 2002, published 2004).
≈ marks a conversion by molar mass, not a printed value.

System: SAUR 9218
Experiment: MIC by standard agar dilution method
Type: cell-based
Conditions: Mueller Hinton agar, incubated overnight at 35° C., lowest concentration that inhibits visible growth
Experimental: MIC Test Method The in vitro MICs of test compounds were determined by a standard agar dilution method. A stock drug solution of each analog was prepared in the preferred solvent, usually DMSO:H2O (1:3). Serial 2-fold dilutions of each sample are made using 1.0 ml aliquots of sterile distilled water. To each 1.0 ml aliquot of drug was added 9 ml of molten Mueller Hinton agar medium. The drug-supplemented agar was mixed, poured into 15×100 mm petri dishes, and allowed to solidify and dry prior to inoculation. Vials of each of the test organisms are maintained frozen in the vapor phase of a liquid nitrogen freezer. Test cultures are grown overnight at 35° C. on the medium appropriate for the organism. Colonies are harvested with a sterile swab, and cell suspensions are prepared in Trypticase Soy broth (TSB) to equal the turbidity of a 0.5 McFarland standard. A 1:20 dilution of each suspension was made in TSB. The plates containing the drug supplemented agar are inoculated with a 0.001 ml drop of the cell suspension using a Steers replicator, yielding approximately 10^4 to 10^5 cells per spot. The plates are incubated overnight at 35° C. Following incubation the Minimum Inhibitory Concentration (MIC μg/ml), the lowest concentration of drug that inhibits visible growth of the organism, was read and recorded.

How did the MIC turn out when O=C(Nc1ccc(Br)cc1-c1n[nH]c(=O)o1)c1ccc(S(=O)(=O)N2CCc3cc(Cl)ccc32)cc1 [N-[4-bromo-2-(5-oxo-4,5-dihydro-1,3,4-oxadiazol-2-yl)phenyl]-4-[(5-chloro-2,3-dihydro-1H-indol-1-yl)sulfonyl]benzamide] was run?
Its MIC is over 128 mg/L.

For COc1cccc(C(=O)Nc2ccc(Br)cc2-c2nnn[nH]2)c1 [N-[4-bromo-2-(1H-tetraazol-5-yl)phenyl]-3-methoxybenzamide], which MIC is on record?
Its MIC is 64 mg/L (≈ 171 µM).

Which MIC does the source give for O=C(Nc1ccc(Br)cc1-c1noc(=O)[nH]1)c1ccc(S(=O)(=O)N2CCc3ccccc32)cc1 [Example 7, N-[4-Bromo-2-(5-oxo-4,5-dihydro-1,2,4-oxadiazol-3-yl)phenyl]-4-(2,3-dihydro-1H-indol-1-ylsulfonyl)benzamide] here?
The MIC was 16 mg/L (≈ 29.6 µM).

O=C(Nc1ccc(Br)cc1-c1noc(=O)[nH]1)c1cccc(S(=O)(=O)N2CCc3cc(Cl)ccc32)c1 [Example 1, N-[4-Bromo-2-(5-oxo-4,5-dihydro-1,2,4-oxadiazol-3-yl)phenyl]-3-[(5-chloro-2,3-dihydro-1H-indol-1-yl)sulfonyl]benzamide] was tested. Which MIC did it give?
Its MIC is 4 mg/L (≈ 6.95 µM).

O=C(Nc1ccc(Br)cc1C1=Nc2ccccc2S(=O)(=O)N1)c1cccc(S(=O)(=O)N2CCc3cc(Cl)ccc32)c1 [Example 14, N-[4-Bromo-2-(1,1-dioxido-2H-1,2,4-benzothiadiazin-3-yl)phenyl]-3-[(5-chloro-2,3-dihydro-1H-indol-1-yl)sulfonyl]benzamide] was tested. Which MIC did it give?
Its MIC is 64 mg/L (≈ 95.2 µM).

CN(c1ccc(Cl)cc1)S(=O)(=O)c1cccc(C(=O)Nc2ccc(Br)cc2C(=O)NS(C)(=O)=O)c1 [Example 3, N-(4-Bromo-2-{[(methylsulfonyl)amino]carbonyl}phenyl)-3-{[(4-chlorophenyl)(methyl)amino]sulfonyl}benzamide] was tested. Which MIC did it give?
The MIC was 2 mg/L (≈ 3.33 µM).

Cc1ccc(S(=O)(=O)NC(=O)c2cc(Br)ccc2NC(=O)c2cccc(S(=O)(=O)N(C)c3ccc(Cl)cc3)c2)cc1 [Example 4, N-[4-Bromo-2-({[(4-methylphenyl)sulfonyl]amino}carbonyl)phenyl]-3-{[(4-chlorophenyl)(methyl)amino]sulfonyl}benzamide] was tested. Which MIC did it give?
The MIC was 8 mg/L (≈ 11.8 µM).

Which MIC does the source give for O=C(Nc1ccc(Br)cc1-c1noc(=O)[nH]1)c1ccc(S(=O)(=O)N2CCc3cc(Cl)ccc32)cc1 [N-[4-bromo-2-(5-oxo-4,5-dihydro-1,2,4-oxadiazol-3-yl)phenyl]-4-[(5-chloro-2,3-dihydro-1H-indol-1-yl)sulfonyl]benzamide] here?
The MIC was 8 mg/L (≈ 13.9 µM).

How did the MIC turn out when CN(c1ccc(Cl)cc1)S(=O)(=O)c1ccc(C(=O)Nc2ccc(Br)cc2NS(=O)(=O)C(F)(F)F)cc1 was run?
Its MIC is 32 mg/L (≈ 51 µM).

CN(c1ccc(Cl)cc1)S(=O)(=O)c1coc(C(=O)Nc2ccc(Br)cc2-c2nnn[nH]2)c1 [Example 27] was tested. Which MIC did it give?
The MIC was 16 mg/L (≈ 29.8 µM).

Which MIC does the source give for CN(c1ccc(Cl)cc1)S(=O)(=O)c1ccc(C(=O)Nc2ccc(Br)cc2-c2noc(=S)[nH]2)cc1 [N-[4-bromo-2-(5-thioxo-4,5-dihydro-1,2,4-oxadiazol-3-yl)phenyl]-4-{[4-chloro(methyl)anilino]sulfonyl}benzamide] here?
Its MIC is 16 mg/L (≈ 27.6 µM).

For CN(c1ccc(Cl)cc1)S(=O)(=O)c1cccc(C(=O)Nc2ccc(Br)cc2-c2noc(=O)[nH]2)c1 [Example 9, N-[4-Bromo-2-(5-oxo-4,5-dihydro-1,2,4-oxadiazol-3-yl)phenyl]-3-{[(4-chlorophenyl)(methyl)amino]sulfonyl}benzamide], which MIC is on record?
The MIC was 16 mg/L (≈ 28.4 µM).

How did the MIC turn out when CC(C)Sc1ccc(C(=O)Nc2ccc(Br)cc2-c2noc(=O)[nH]2)cn1 [Example 31, N-[4-bromo-2-(5-oxo-4,5-dihydro-1,2,4-oxadiazol-3-yl)phenyl]-6-(isopropylthio)nicotinamide] was run?
The MIC was 8 mg/L (≈ 18.4 µM).

CN(c1ccc(Cl)cc1)S(=O)(=O)c1ccc(C(=O)Nc2ccc(Br)cc2-c2nnn[nH]2)s1 [Example 29, N-[4-Bromo-2-(1H-tetraazol-5-yl)phenyl]-5-{[(4-chlorophenyl)(methyl)amino]sulfonyl}thiophene-2-carboxamide] was tested. Which MIC did it give?
The MIC was 8 mg/L (≈ 14.4 µM).

How did the MIC turn out when CN(c1ccc(Cl)cc1)S(=O)(=O)c1ccc(C(=O)Nc2ccc(Br)cc2-c2n[nH]c(=O)o2)cc1 [N-[4-bromo-2-(5-oxo-4,5-dihydro-1,3,4-oxadiazol-2-yl)phenyl]-4-{[4-chloro(methyl)anilino]sulfonyl}benzamide] was run?
The MIC was 2 mg/L (≈ 3.55 µM).

O=C(Nc1ccc(Br)cc1-c1nc2ccccc2c(=O)[nH]1)c1cccc(S(=O)(=O)N2CCc3cc(Cl)ccc32)c1 [Example 12, N-[4-Bromo-2-(4-oxo-3,4-dihydroquinazolin-2-yl)phenyl]-3-[(5-chloro-2,3-dihydro-1H-indol-1-yl)sulfonyl]benzamide] was tested. Which MIC did it give?
The MIC was 4 mg/L (≈ 6.29 µM).

Which MIC does the source give for O=C(Nc1ccc(Br)cc1-c1noc(=O)[nH]1)c1cccc(OCc2ccccc2)c1 [Example 10, 3-(Benzyloxy)-N-[4-bromo-2-(5-oxo-4,5-dihydro-1,2,4-oxadiazol-3-yl)phenyl]benzamide] here?
Its MIC is 8 mg/L (≈ 17.2 µM).

For O=C(Nc1ccc(Br)cc1C1=Nc2ccccc2S(=O)(=O)N1)c1cccc(S(=O)(=O)N2CCOCC2)c1 [Example 11, N-[4-Bromo-2-(1,1-dioxido-2H-1,2,4-benzothiadiazin-3-yl)phenyl]-3-(morpholin-4-ylsulfonyl)benzamide], which MIC is on record?
Its MIC is 16 mg/L (≈ 26.4 µM).

How did the MIC turn out when O=C(Nc1ccc(Br)cc1-c1nnn[nH]1)c1ccc(S(=O)(=O)N2CCc3ccccc32)cc1 [N-[4-bromo-2-(1H-1,2,3,4-tetraazol-5-yl)phenyl]-4-(2,3-dihydro-1H-indol-1-ylsulfonyl)benzamide] was run?
Its MIC is 2 mg/L (≈ 3.81 µM).

With O=C(Nc1ccc(Br)cc1-c1noc(=O)[nH]1)c1cccc(SCc2ccccc2)c1 [Example 2, 3-(Benzylthio)-N-[4-bromo-2-(5-oxo-4,5-dihydro-1,2,4-oxadiazol-3-yl)phenyl]benzamide] as the molecule, how does the MIC read?
The MIC was 8 mg/L (≈ 16.6 µM).

How did the MIC turn out when CN(c1ccc(Cl)cc1)S(=O)(=O)c1ccc(C(=O)Nc2ccc(Br)cc2-c2n[nH]c(=S)o2)cc1 [Example 8, N-[4-Bromo-2-(5-thioxo-4,5-dihydro-1,3,4-oxadiazol-2-yl)phenyl]-4-{[(4-chlorophenyl)(methyl)amino]sulfonyl}benzamide] was run?
The MIC was 4 mg/L (≈ 6.9 µM).

Which MIC does the source give for O=C(Nc1ccc(Br)cc1-c1nnn[nH]1)c1ccc(S(=O)(=O)N2CCc3cc(Cl)ccc32)cc1 [N-[4-bromo-2-(1H-1,2,3,4-tetraazol-5-yl)phenyl]-4-[(5-chloro-2,3-dihydro-1H-indol-1-yl)sulfonyl]benzamide] here?
Its MIC is 4 mg/L (≈ 7.14 µM).

For CC(C)Oc1cccc(C(=O)Nc2ccc(Br)cc2-c2noc(=O)[nH]2)c1 [Example 15, N-[4-Bromo-2-(5-oxo-4,5-dihydro-1,2,4-oxadiazol-3-yl)phenyl]-3-isopropoxybenzamide], which MIC is on record?
The MIC was 32 mg/L (≈ 76.5 µM).

For O=C(Nc1ccc(I)cc1-c1nnn[nH]1)c1cc2cccc(S(=O)(=O)c3ccccc3)c2[nH]1 [Example 24, N-[4-iodo-2-(1H-tetraazol-5-yl)phenyl]-7-(phenylsulfonyl)-1H-indole-2-carboxamide], which MIC is on record?
Its MIC is 0.5 mg/L (≈ 0.877 µM).

For CN(c1ccc(Cl)cc1)S(=O)(=O)c1csc(C(=O)Nc2ccc(Br)cc2-c2nnn[nH]2)c1 [Example 28, N-[4-Bromo-2-(1H-tetraazol-5-yl)phenyl]-4-{[(4-chlorophenyl)(methyl)amino]sulfonyl}thiophene-2-carboxamide], which MIC is on record?
The MIC was 16 mg/L (≈ 28.9 µM).

Which MIC does the source give for O=C(Nc1ccc(Br)cc1-c1nc2ccccc2c(=O)[nH]1)c1cccc(S(=O)(=O)N2CCOCC2)c1 [Example 13, N-[4-Bromo-2-(4-oxo-3,4-dihydroquinazolin-2-yl)phenyl]-3-(morpholin-4-ylsulfonyl)benzamide] here?
The MIC was 4 mg/L (≈ 7.02 µM).
